The record followed here is publication PMC9862175 (Molecules, 2023).

What is called inhibition is the share of the control response that was lost under treatment.

Test [1] has as its system T-47D breast cancer cells. Put plainly: Cell viability (MTS) assay in T-47D cells. The note with it: for IC50: cell proliferation after 3 days, MTS; for Stimulation of ER+ cell proliferation (estrogenic activity): T-47D cells, 3 days. It counts as cell-based, human. The procedure:
T-47D cells: Human T-47D breast cancer cells were obtained from American Type Culture Collection (Manassas, VA, USA) and cultured in RPMI-1640 supplemented with L-glutamine ([…]), penicillin (100 IU/mL), streptomycin (100 µg/mL), 17β-estradiol (1 nM) and 10% (v/v) fetal bovine serum (FBS). Cells were maintained under a 5% CO2 humidified atmosphere at 37 °C. The culture media were changed every two or three days and the cells were split once a week to maintain cell propagation.
(§1) The cell proliferation assays were performed using 3-(4,5-dimethylthiazol-2-yl)-5-(3-carboxymethoxyphenyl)-2-(4-sulfophenyl)-2H-tetrazolium (MTS) (Cell Titer 96 Aqueous, Promega, Nepean, ON, Canada), as previously described. Briefly, cells (5000/well for T-47D or 3000/well for Z-12) were plated in triplicate in 96-well plates in appropriate culture medium (total of 90 µL). Before each treatment, the cells were incubated at 37 °C in a 5% CO2 humidified atmosphere for 24 h. Compounds 5, 6, 10 and RM-581, as positive control, were dissolved in DMSO to obtain stock solutions, which were diluted at multiple concentrations with culture media to obtain the desired final concentration by adding 10 µL in each well, and the mixture was incubated for 3 days. Following treatment, 20 µL of a solution of MTS were added to each well and the mixture was incubated for 4 h. The plates were subsequently analyzed at 490 nm using a Tecan M-200 microplate reader (Männedorf, Switzerland) and the concentration inhibiting 50% of cell proliferation was determined using GraphPad Prism 6 software.

For test [2], the system named is Z-12 endometriotic epithelial cells. The experiment in a line: Cell viability (MTS) assay in Z-12 cells. It counts as cell-based, human. The note with it: for IC50: cell proliferation after 3 days, MTS, read-out: Z-12 Cells (Endometriosis) (IC50 in μM), cell proliferation; for Stimulation of ER+ cell proliferation (estrogenic activity): Z-12 cells, 3 days. As to the method: Z-12 cells: Human Z-12 endometriotic epithelial cells were obtained from Dr. Asgi T. Fazleabas (Michigan State University, Grand Rapids, MI). Cells were grown in Dulbecco’s Modified Eagle medium (DMEM/F12) supplemented with 5% (v/v) FBS treated with dextran-coated charcoal, L-glutamine ([…]), penicillin (100 IU/mL) and streptomycin (100 µg/mL). Cells were maintained under a 5% CO2 humidified atmosphere at 37 °C. The culture media were changed every two or three days and the cells were split once a week to maintain cell propagation.
as §1

Another test concerns the target T1, 17β-HSD1 (Homo sapiens, UniProt P14061).
T1 construct: endogenous in cells; host or cells: T-47D human breast cancer cells (ATCC), whole cells
T1 sequence (P14061 1-328): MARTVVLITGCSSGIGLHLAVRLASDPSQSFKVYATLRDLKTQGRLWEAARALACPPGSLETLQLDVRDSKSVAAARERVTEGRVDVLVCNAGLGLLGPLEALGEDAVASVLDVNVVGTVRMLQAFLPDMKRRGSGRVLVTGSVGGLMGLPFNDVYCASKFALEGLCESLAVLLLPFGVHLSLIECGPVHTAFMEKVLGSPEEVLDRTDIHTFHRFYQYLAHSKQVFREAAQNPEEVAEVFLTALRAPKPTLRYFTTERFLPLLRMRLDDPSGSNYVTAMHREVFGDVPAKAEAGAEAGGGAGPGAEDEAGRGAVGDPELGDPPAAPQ
The experiment in a line: 17β-HSD1 inhibition assay: transformation of [3H]-E1 to [3H]-E2 in whole T-47D cells. It counts as cell-based. The note with it: for inhibition at 0.1 µM / inhibition at 1 µM / inhibition at 10 µM: T47D. The procedure: Cells were maintained under a 5% CO2 humidified atmosphere at 37 °C. The culture media were changed every two or three days and the cells were split once a week to maintain cell propagation.
T-47D cells were grown in a medium supplemented with insulin (50 ng/mL) and 5% dextran-coated charcoal-treated FBS, which was used rather than untreated 10% FBS, to remove the remaining steroid hormones. Stock solution of each compound to be tested was previously prepared in DMSO and diluted with a culture medium to achieve the appropriate concentrations, prior to use. For the assay, the cells (8000 cells/well) were seeded in a 24-well plate. After 24 h of incubation, a diluted solution of each inhibitor was added to the cells to obtain the appropriate final concentration (0.1, 1 and 10 μM). The final concentration of DMSO in the well was adjusted to 0.03%. […] Cells were incubated for 24 h and each inhibitor was assessed in triplicate. […] The organic phase was evaporated to dryness with nitrogen. Residues were dissolved in CH2Cl2, spotted on silica gel TLC plates (EMD Chemicals Inc., Gibbstown, NJ, USA) and eluted with toluene/acetone (4:1) as the solvent system. […] Each compound was quantified with a scintillation counter.

[3] abbreviates: read-out: Inhibition (IC50 in μM) of E1 to E2 transformation by 17β-HSD1, T-47D cells, [3H]-E1/E1 60 nM, 24 h.
Where [4] appears, read: Homo sapiens, Epithelial cell, 72 h.
[5] abbreviates: T-47D cells, [3H]-E1/E1 60 nM, 24 h, inhibitor 0.1 μM.
Where [6] appears, read: T-47D cells, [3H]-E1/E1 60 nM, 24 h, inhibitor 1 μM.
[7] abbreviates: T-47D cells, [3H]-E1/E1 60 nM, 24 h, inhibitor 10 μM.

“And” between values parts separate entries of the source, which are not always exact repeats. Identical values can stand only once. Like-named read-outs stand apart in the source and are kept apart here. Bounds are passed on as bounds.

On to `C#C[C@]1(O)CC[C@H]2[C@@H]3CCc4cc(OC)c(N5CCN(C(=O)[C@@H]6CCCN6C(=O)c6ccc7ccccc7n6)CC5)cc4[C@H]3CC[C@@]21C` [RM-581, reference compound], for which the IC50 was determined as 0.61 µM in test [1] and 1.5 µM in test [2].
On 17β-HSD1, `C[C@]12CCC3c4ccc(O)cc4CCC3C1C[C@@H](CCCBr)[C@@H]2O` (some centres unmarked) [EM-251] gave an IC50 of 0.58 µM, an inhibition at 0.1 µM of 43.8 ± 0.2%, an inhibition at 1 µM of 36.9 ± 9.3% and an inhibition at 10 µM of 86.6 ± 8%.
For the compound `C[C@]12CC[C@@H]3c4ccc(Oc5cccc(C(N)=O)c5)cc4CC[C@H]3[C@@H]1C[C@@H](CCCBr)[C@@H]2O` [Compound 10, 3-(3-Carbamoylphenyloxy)-16α-(3-bromopropyl)-estra-1,3,5(10)-trien-17β-ol], the “Inhibitory activity, fold lower than EM-251” value at 17β-HSD1 (IC50 1.3 μM vs 0.58 μM of EM-251, T-47D cells) amounted to 2 fold. Further, on 17β-HSD1, testing at 0.1 µM gave an inhibition of 28.2 ± 5.4%. The same compound registered an inhibition at 1 µM against 17β-HSD1 of 37 ± 14.5%. The inhibition at 10 µM against 17β-HSD1 is 82.1 ± 5.7%. In addition, the IC50 at 17β-HSD1 (setting [3]) came to 1.3 µM; in test [1] (Homo sapiens, T47D, 72 h) it was 14 µM; in test [2] (setting [4]), 20 µM. The “Stimulation of ER+ cell proliferation (estrogenic activity)” value (“Stimulation of ER+ cell proliferation” below) in test [1] and in test [2] was “did not stimulate” in each case.
With `C[C@]12CC[C@@H]3c4ccc(Oc5cccc(C(N)=O)c5)cc4CC[C@H]3[C@@H]1CCC2=O` [Compound 5, 3-(3-Carbamoylphenyloxy)-estra-1,3,5(10)-trien-17-one], at 17β-HSD1, the IC50 stood at 0.31 µM, the inhibition at 0.1 µM worked out at 29.1 ± 6.2%, at 1 µM the inhibition was 70.7 ± 14.1% and the inhibition at 10 µM is 98.9 ± 2.8%. In test [1] (Homo sapiens, T47D, 72 h), this compound displayed an IC50 of 49 µM. Besides, in test [1], the “Stimulation of ER+ cell proliferation” value is on record as “did not stimulate”. Moreover, the IC50 in test [2] (setting [4]) was above 30 µM. The “Stimulation of ER+ cell proliferation” value in test [2] is “did not stimulate”.
On 17β-HSD1, `C[C@]12CC[C@@H]3c4ccc(Oc5cccc(C(N)=O)c5)cc4CC[C@H]3[C@@H]1CC[C@@H]2O` [Compound 6, 3-(3-Carbamoylphenyloxy)-estra-1,3,5(10)-trien-17β-ol] displayed an IC50 of 1.2 µM, an inhibition at 0.1 µM of 40 ± 6.5%, an inhibition at 1 µM of 48.6 ± 15.7% and an inhibition at 10 µM of 59.6 ± 1.5%. The compound further registered an IC50 in test [1] (Homo sapiens, T47D, 72 h) of 37 µM. Also, the “Stimulation of ER+ cell proliferation” value in test [1] was “did not stimulate”. Further, in test [2] (setting [4]), the IC50 is above 30 µM. Also, in test [2], the “Stimulation of ER+ cell proliferation” value is given as “did not stimulate”.
On to `C[C@]12CC[C@@H]3c4ccc(CCBr)cc4CC[C@H]3[C@@H]1C[C@H](Cc1cccc(C(N)=O)c1)[C@@H]2O` [PBRM], for which, at 17β-HSD1 (setting [5]), the “Inhibition (% at 0.1 μM)” value is 44% and 43.8 ± 3.4%. In addition, the “Inhibition (% at 1 μM)” value at 17β-HSD1 (setting [6]) was 75% and 74.8 ± 3.2%. For the same compound, the “Inhibition (% at 10 μM)” value at 17β-HSD1 (setting [7]) is listed as 91.0 ± 3.8%. On 17β-HSD1 (setting [3]), the IC50 amounted to 0.15 µM.
On to `C[C@]12CC[C@@H]3c4ccc(O)cc4CC[C@H]3[C@@H]1CCC2=O` [E1, estrone], for which, on 17β-HSD1 (setting [5]), the inhibition at 0.1 µM was determined as 45% and the “Inhibition (% at 0.1 μM)” value came to 44.9 ± 14.7%. Also, at 17β-HSD1 (setting [6]), the inhibition at 1 µM amounted to 61% and the “Inhibition (% at 1 μM)” value is recorded as 60.9 ± 8.3%. Also, on 17β-HSD1 (setting [7]), testing at 10 µM gave an inhibition of 78% and the “Inhibition (% at 10 μM)” value amounted to 78.1 ± 2.2%.
